Where two headings read alike, the source gives them in different places.
Columns and labels:
[1] = tested on: cos 7 (monkey kidney-derived) cells; assay: MTT-based toxicology assay; format: cell-based; details: 1 mg/mL, two hours; preliminary results
Protocol: Toxicity testing was performed on the example complexes 1-5 as well as the corresponding ligands against cos 7 eukaryotic cells. Cytotoxicity was assessed using the MTT-based toxicology assay (Sigma-Aldrich; TOX1 assay kit) according to the manufacturer's instructions. Compounds were added to cultured cos 7 (monkey kidney-derived) cells at 1 mg/mL and 0.5 mg/mL for two hours. The MTT reagent was then added and cells were incubated at 37° C. for a further two hours. Following incubation, MTT solubilisation solution was added and mixed. Absorbance results were measured on a Tecan plate reader at 690 nm (background reading) and again at 570 nm. Results were calculated after subtracting the background reading (690 nm) from the values obtained at 570 nm. Cell viability was expressed as a normalised percentage against the blank (medium-only) negative controls. All assays were performed in duplicate.

[2] = tested on: E. coli; assay: Test 1: colony count after incubation in Lysogeny broth culture; format: cell-based; details: for Colony E. coli: Table 1a, 10 mg in 5 mL culture, 2 hours at 37° C., Blank 8.00E+08 (examples), 6.40E+08 (second Blank); for inhibition of growth at 2000 µg/mL: Escherichia coli, 2 h, read-out: Reduction in bacterial growth (%) E. coli
Protocol: (§1) Bacteria were grown in […] Lysogeny broth (LB), shaking at 37° C. to an optical density (OD) of 0.6 (2-3 hr). The culture was divided in […]. One of the cultures was used as a control, containing no organobismuth(III) phosphinate complex. To the other culture, 10 mg of the appropriate organobismuth (III) phosphinate complex was added. The control and organobismuth(III) phosphinate complex-containing cultures were then incubated for 2 hours at 37° C. with shaking. An aliquot was removed from each culture, serially diluted and 50 uL spread on lysogeny broth plates (˜1 in 10^7 gives countable colony numbers for the wild type controls). The plates were incubated overnight at 37° C. The colonies were counted and multiplied by the dilution factor to determine the colony-forming unit (cfu)/ml of the original culture.
(§2) The experiments were also repeated in a lower concentration (0.5 mg/mL) in accordance with the procedure above, which is also shown in Table 2.

[3] = tested on: S. aureus; assay: as above; format: cell-based; details: for Colony S. aureus: Table 1a, 10 mg in 5 mL culture, 2 hours at 37° C., Blank 8.00E+08 (examples), 4.00E+08 (second Blank); for inhibition of growth at 2000 µg/mL: Staphylococcus aureus, 2 h, read-out: Reduction in bacterial growth (%) S. aureus
Protocol: as §1, §2

[4] = tested on: MRSA; assay: Test 3: complex incorporated in agar, colony growth; format: cell-based, Staphylococcus aureus; details: 1 mg in agar (20 mL)
Protocol: (§3) The organobismuth (III) phosphinate complex (10 mg or 1 mg) was spread at the bottom of a petri dish. 20 mL of agar was poured on top, before allowing to dry and being stored in a cool dry place. MRSA and VRE were grown in 40 mL BHI with shaking at 37° C. to an OD (optical density) of 0.6 (2-3 hr). The bacteria were then grown for a further 2 hours at 37° C. The bacteria were then plated (at no dilution, 10^3-fold dilution, and 10^4-fold dilution on agar plates containing organobismuth (III) phosphinate and control plates containing no organobismuth (III) phosphinate. The plates were incubated overnight at 37° C. The colonies were counted and multiplied by the dilution factor to determine the colony-forming unit (cfu)/ml of the original culture.

[5] = tested on: VRE; assay: as above; format: cell-based, Enterococcus; details: 1 mg in agar (20 mL)
Protocol: as §3

[6] = 0.5 mg/mL, normalised against the Blank sample
[7] = 2 mg/mL, normalised against the Blank sample

O=P([O][Bi]([O]P(=O)(c1ccccc1)c1ccccc1)[c]1ccccc1)(c1ccccc1)c1ccccc1 [Example 1, Phenyl bismuth bis(diphenylphosphinate)]
toxicity (in words) [1]: relatively non-toxic

COc1ccc(P(=O)([O][Bi]([O]P(=O)(c2ccc(OC)cc2)c2ccc(OC)cc2)[c]2ccccc2)c2ccc(OC)cc2)cc1 [Example 2, Phenyl bismuth bis(bis(4-methoxyphenyl)phosphinate)]
Reduction in bacterial growth (%) E. coli [2, 6]: 100.00%
Reduction in bacterial growth (%) E. coli [2, 7]: 100.00%
Colony E. coli [2]: 1.50E+01 cfu/ml
Reduction in bacterial growth (%) S. aureus [3, 6]: 40.00%
Reduction in bacterial growth (%) S. aureus [3, 7]: 100.00%
Colony S. aureus [3]: 0.00E+00 cfu/ml

O=[N+]([O-])c1cccc(P(=O)([O][Bi]([O]P(=O)(c2cccc([N+](=O)[O-])c2)c2cccc([N+](=O)[O-])c2)[c]2ccccc2)c2cccc([N+](=O)[O-])c2)c1 [Example 3, Phenyl bismuth bis(bis(3-nitrophenyl)phosphinate)]
Reduction in bacterial growth (%) E. coli [2, 6]: 97.00%
Reduction in bacterial growth (%) E. coli [2, 7]: 100.00%
Colony E. coli [2]: 0.00E+00 cfu/ml
Reduction in bacterial growth (%) S. aureus [3, 6]: 90.00%
Reduction in bacterial growth (%) S. aureus [3, 7]: 100.00%
Colony S. aureus [3]: 0.00E+00 cfu/ml
bacterial growth on treated agar (in words) [4]: no bacterial growth was observed
bacterial growth on treated agar (in words) [5]: no bacterial growth was observed

O=[PH]([O][Bi]([O][PH](=O)c1ccccc1)[c]1ccccc1)c1ccccc1 (stereo not drawn) [Example 4, Phenyl bismuth bis(phenylphosphinate)]
toxicity (in words) [1]: relatively non-toxic

CP(C)(=O)[O][Bi]([O]P(C)(C)=O)[c]1ccccc1 [Example 5, Phenyl Bismuth bis(dimethylphosphinate)]
toxicity (in words) [1]: relatively non-toxic

O=[N+]([O-])c1cccc(P(=O)(O)c2cccc([N+](=O)[O-])c2)c1 [bis(3-nitrophenyl)phosphinic acid, Bis(3-nitrophenyl)phosphinic acid]
inhibition of growth at 2000 µg/mL [2, 7]: 90%
Colony E. coli [2]: 8.00E+07 cfu/ml
inhibition of growth at 2000 µg/mL [3, 7]: 0%
Colony S. aureus [3]: 8.00E+08 cfu/ml

COc1ccc(P(=O)(O)c2ccc(OC)cc2)cc1 [bis(4-methoxyphenyl)phosphinic acid]
inhibition of growth at 2000 µg/mL [2, 7]: 90%
Colony E. coli [2]: 8.00E+07 cfu/ml
inhibition of growth at 2000 µg/mL [3, 7]: 25%
Colony S. aureus [3]: 6.00E+08 cfu/ml

CP(C)(=O)O [dimethyl phosphinic acid]
inhibition of growth at 2000 µg/mL [2]: 78.8%
Colony E. coli [2]: 1.70E+08 cfu/ml
inhibition of growth at 2000 µg/mL [3]: 25%
Colony S. aureus [3]: 6.00E+08 cfu/ml

O=P(O)(c1ccccc1)c1ccccc1 [diphenylphosphinic acid]
inhibition of growth at 2000 µg/mL [2, 7]: 70%
Colony E. coli [2]: 2.40E+08 cfu/ml
inhibition of growth at 2000 µg/mL [3, 7]: 0%
Colony S. aureus [3]: 8.00E+08 cfu/ml

O=[PH](O)c1ccccc1 [phenylphosphinic acid]
inhibition of growth at 2000 µg/mL [2]: 60%
Colony E. coli [2]: 3.20E+08 cfu/ml
inhibition of growth at 2000 µg/mL [3]: 0%
Colony S. aureus [3]: 8.00E+08 cfu/ml

c1cc[c]([Bi]([c]2ccccc2)[c]2ccccc2)cc1 [triphenylbismuth]
bacterial growth on treated agar (in words) [4]: grew to a comparable number as the blank
bacterial growth on treated agar (in words) [5]: grew to a comparable number as the blank

From patent US10501487B2, “Antibacterial bismuth complexes” (priority 2015, dated 2019)
